Data taken from patent US20260191807A1, “COMPOSITIONS AND METHODS FOR TREATMENT OF PRADER-WILLI SYNDROME” (ERX Pharmaceuticals Inc., priority 2022, published 2026).
Values joined by “and” are separate entries in the source; they are usually repeats but may differ in a detail not shown here. Equal entries are not always repeated.

What was measured:
Format in all cases: in vivo
C57BL/6 DIO mice = experiment: Body weights of C57BL/6 DIO mice during daily treatment; settings: Celastrol 0.2 mg/kg IP daily; for Body weights (expressed as a percentage of day-1 weight) / Body weights (in grams): Belaronib 0.3 mg/kg SC, mean
C57BL/6-Magel2 mice [1] = experiment: Nestlet shredding test in C57BL/6 Magel2 mice; settings: 0.2 mg/kg IP QD, mean
Experimental: The nestlet shredding behavioral effects of celastrol was evaluated in Magel2 knockout mice. Magel2 knockout has been used as a model of Prader-Willi syndrome to assess potential pharmacological treatments effect on behavior (Meziane 2015). Without wishing to be bound by theory, the Magel2 gene is a major causative gene of phenotypes in both Prader-Willi syndrome and autism (Schraff 2013). Further, nestlet shredding has been used to assess anxiety and compulsive behaviors in mouse models (Angoa-Perez 2013 and Dorniger 2020) and has been used to characterize clinically effective treatments for Prader-Willi syndrome (Fagen 2018 and McCandless 2017).
(§1) In the study disclosed herein, celastrol at was administered intraperitoneally using a 30G needle at a dose of 0.2 mg/kg to five female Magel2 homozygous mice (−/−) and four male mice heterozygous for Magel2 (−/+). In addition, vehicle was administered to four male mice heterozygous for Magel2 (−/+) for 21 days.
(§2) C57BL/6-Magel2 mice were bred for purpose from cryo recovery by Jackson Labs (Bar Harbor, ME) and arrived at the testing facility at age 8 weeks.
(§3) All treatment volumes were 10 mL/kg. Utilizing the art-recognized nestlet shredding mouse model, the dose was administered by gavage (as capsule dosing is challenging in mice). Celastrol and the vehicle control were administered intraperitoneally using a 30G needle. All treatments were administered daily in the afternoon at 17:00 h, 1 hour before dark cycle from Day 1 to end of dosing.
(§4) Celastrol was dissolved in 50% Solutol/50% DMAC. The resulting stock solution aliquoted and stored at −80° C. until treatment day. On the day of treatment an aliquot of the stock solution was thawed and diluted 1:20 with saline to obtain the desired dosing solution strength in 5%
The nestlet shredding test is an art-recognized animal model for human repetitive, anxiety, and/or compulsive behaviors. In the nestlet shredding test, a nestlet comprised of pulped fiber, e.g., cotton fiber, is preweighed and placed on top of cage bedding and the amount of the nestlet remaining intact after a test session of pre-determined time is evaluated.
Nestlet shredding was determined on day 1, day 11, and day 21 by placing a fresh nestlet prior to the dark cycle and measuring the weight of the remaining nestlet at 12 and 24 hours on an Ohaus model CS 200 balance. Percent shredding was calculated based on the initial nestlet weight.

C57BL/6 mice = experiment: Deaths and clinical signs, C57BL/6 DIO study; settings: C57BL/6 DIO mice treated Day 1 to Day 15; Celastrol 0.2 mg/kg IP
Experimental: C57BL/6 mice were treated with test compound (Celastrol) or controls as shown in the table below from Day 1 to Day 15. […] One mouse was excluded from the study because it appeared resistant to nestlet shredding prior to treatment.

C57BL/6-Magel2 mice [2] = experiment: Daily food intake of C57BL/6 Magel2 mice; settings: for Food intake (food weights in g/day): mean
Experimental: as §1, §2, §3, §4
Daily food intake was calculated based on remaining food weight compared to food weight on the previous day using an Ohaus model CS 200 balance.

## CC1=C(O)C(=O)C=C2C1=CC=C1[C@@]2(C)CC[C@@]2(C)[C@@H]3C[C@](C)(C(=O)O)CC[C@]3(C)CC[C@]12C [Celastrol]
C57BL/6 DIO mice; Day 1
  Body weights (expressed as a percentage of day-1 weight): 100.0%
  Body weights (in grams): 44.8 grams and 45.4 grams
C57BL/6 DIO mice; Day 2
  Body weights (expressed as a percentage of day-1 weight): 98.6%
  Body weights (in grams): 44.8 grams
C57BL/6 DIO mice; Day 3
  Body weights (expressed as a percentage of day-1 weight): 95.8%
  Body weights (in grams): 43.5 grams
C57BL/6 DIO mice; Day 4
  Body weights (expressed as a percentage of day-1 weight): 92.8%
  Body weights (in grams): 42.2 grams
C57BL/6 DIO mice; Day 5
  Body weights (expressed as a percentage of day-1 weight): 89.6%
  Body weights (in grams): 40.7 grams
C57BL/6 DIO mice; Day 6
  Body weights (expressed as a percentage of day-1 weight): 86.2%
  Body weights (in grams): 39.2 grams
C57BL/6 DIO mice; Day 7
  Body weights (expressed as a percentage of day-1 weight): 83.8%
  Body weights (in grams): 38.1 grams
C57BL/6 DIO mice; Day 8
  Body weights (expressed as a percentage of day-1 weight): 81.3%
  Body weights (in grams): 37.0 grams
C57BL/6 DIO mice; Day 9
  Body weights (expressed as a percentage of day-1 weight): 79.2%
  Body weights (in grams): 36.0 grams
C57BL/6 DIO mice; Day 10
  Body weights (expressed as a percentage of day-1 weight): 76.5%
  Body weights (in grams): 34.8 grams
C57BL/6 DIO mice; Day 11
  Body weights (expressed as a percentage of day-1 weight): 73.9%
  Body weights (in grams): 33.6 grams
C57BL/6 DIO mice; Day 12
  Body weights (expressed as a percentage of day-1 weight): 72.2%
  Body weights (in grams): 32.8 grams
C57BL/6 DIO mice; Day 13
  Body weights (expressed as a percentage of day-1 weight): 71.1%
  Body weights (in grams): 32.3 grams
C57BL/6 DIO mice; Day 14
  Body weights (expressed as a percentage of day-1 weight): 70.1%
  Body weights (in grams): 31.9 grams
C57BL/6 DIO mice; Day 15
  Body weights (expressed as a percentage of day-1 weight): 69.2%
  Body weights (in grams): 31.4 grams
C57BL/6 DIO mice; at day 15, Beloranib 0.3 mg/kg SC, vehicle-treated mice lost 15.5%
  body weight lost (percentage of day 1 body weight): 30.8%
C57BL/6-Magel2 mice [1]; Day 1, 12 hour, Magel2 (−/+) heterozygous male mice
  Nestlet Shredding (percent of nestlet shredded): 100.0%
C57BL/6-Magel2 mice [1]; Day 1, 12 hour, Magel2 (−/−) homozygous female mice
  Nestlet Shredding (percent of nestlet shredded): 100.0%
C57BL/6-Magel2 mice [1]; Day 11, 12 hour, Magel2 (−/+) heterozygous male mice
  Nestlet Shredding (percent of nestlet shredded): 100.0%
C57BL/6-Magel2 mice [1]; Day 11, 12 hour, Magel2 (−/−) homozygous female mice
  Nestlet Shredding (percent of nestlet shredded): 54.7%
C57BL/6-Magel2 mice [1]; Day 11, 24 hour, Magel2 (−/+) heterozygous male mice
  Nestlet Shredding (percent of nestlet shredded): 100.0%
C57BL/6-Magel2 mice [1]; Day 11, 24 hour, Magel2 (−/−) homozygous female mice
  Nestlet Shredding (percent of nestlet shredded): 93.5%
C57BL/6-Magel2 mice [1]; Day 21, 12 hour, Magel2 (−/+) heterozygous male mice
  Nestlet Shredding (percent of nestlet shredded): 38.3%
C57BL/6-Magel2 mice [1]; Day 21, 12 hour, Magel2 (−/−) homozygous female mice
  Nestlet Shredding (percent of nestlet shredded): 54.7%
C57BL/6-Magel2 mice [1]; Day 21, 24 hour, Magel2 (−/+) heterozygous male mice
  Nestlet Shredding (percent of nestlet shredded): 44.6%
C57BL/6-Magel2 mice [1]; Day 21, 24 hour, Magel2 (−/−) homozygous female mice
  Nestlet Shredding (percent of nestlet shredded): 62.3%
C57BL/6 mice
  deaths or abnormal clinical signs: No deaths or abnormal clinical signs
C57BL/6-Magel2 mice [2]; Day 1, Magel2 (−/+) heterozygous male mice, 0.2 mg/kg IP QD
  Food intake (food weights in g/day): 6.6 g/day
C57BL/6-Magel2 mice [2]; Day 1, Magel2 (−/−) homozygous female mice, 0.2 mg/kg IP QD
  Food intake (food weights in g/day): 5.9 g/day
C57BL/6-Magel2 mice [2]; Day 2, Magel2 (−/+) heterozygous male mice, 0.2 mg/kg IP QD
  Food intake (food weights in g/day): 4.9 g/day
C57BL/6-Magel2 mice [2]; Day 2, Magel2 (−/−) homozygous female mice, 0.2 mg/kg IP QD
  Food intake (food weights in g/day): 5.9 g/day
C57BL/6-Magel2 mice [2]; Day 4, Magel2 (−/+) heterozygous male mice, 0.2 mg/kg IP QD
  Food intake (food weights in g/day): 7.0 g/day
C57BL/6-Magel2 mice [2]; Day 4, Magel2 (−/−) homozygous female mice, 0.2 mg/kg IP QD
  Food intake (food weights in g/day): 6.4 g/day
C57BL/6-Magel2 mice [2]; Day 6, Magel2 (−/+) heterozygous male mice, 0.2 mg/kg IP QD
  Food intake (food weights in g/day): 6.3 g/day
C57BL/6-Magel2 mice [2]; Day 6, Magel2 (−/−) homozygous female mice, 0.2 mg/kg IP QD
  Food intake (food weights in g/day): 6.2 g/day
C57BL/6-Magel2 mice [2]; Day 8, Magel2 (−/+) heterozygous male mice, 0.2 mg/kg IP QD
  Food intake (food weights in g/day): 5.2 g/day
C57BL/6-Magel2 mice [2]; Day 8, Magel2 (−/−) homozygous female mice, 0.2 mg/kg IP QD
  Food intake (food weights in g/day): 4.6 g/day
C57BL/6-Magel2 mice [2]; Day 10, Magel2 (−/+) heterozygous male mice, 0.2 mg/kg IP QD
  Food intake (food weights in g/day): 3.1 g/day
C57BL/6-Magel2 mice [2]; Day 10, Magel2 (−/−) homozygous female mice, 0.2 mg/kg IP QD
  Food intake (food weights in g/day): 2.4 g/day
C57BL/6-Magel2 mice [2]; Day 11, Magel2 (−/+) heterozygous male mice, 0.2 mg/kg IP QD
  Food intake (food weights in g/day): 3.9 g/day
C57BL/6-Magel2 mice [2]; Day 11, Magel2 (−/−) homozygous female mice, 0.2 mg/kg IP QD
  Food intake (food weights in g/day): 1.4 g/day
C57BL/6-Magel2 mice [2]; Day 13, Magel2 (−/+) heterozygous male mice, 0.2 mg/kg IP QD
  Food intake (food weights in g/day): 5.1 g/day
C57BL/6-Magel2 mice [2]; Day 13, Magel2 (−/−) homozygous female mice, 0.2 mg/kg IP QD
  Food intake (food weights in g/day): 4.0 g/day
C57BL/6-Magel2 mice [2]; Day 15, Magel2 (−/+) heterozygous male mice, 0.2 mg/kg IP QD
  Food intake (food weights in g/day): 5.9 g/day
C57BL/6-Magel2 mice [2]; Day 15, Magel2 (−/−) homozygous female mice, 0.2 mg/kg IP QD
  Food intake (food weights in g/day): 5.2 g/day
C57BL/6-Magel2 mice [2]; Day 17, Magel2 (−/+) heterozygous male mice, 0.2 mg/kg IP QD
  Food intake (food weights in g/day): 3.2 g/day
C57BL/6-Magel2 mice [2]; Day 17, Magel2 (−/−) homozygous female mice, 0.2 mg/kg IP QD
  Food intake (food weights in g/day): 2.2 g/day
C57BL/6-Magel2 mice [2]; Day 18, Magel2 (−/+) heterozygous male mice, 0.2 mg/kg IP QD
  Food intake (food weights in g/day): 2.5 g/day
C57BL/6-Magel2 mice [2]; Day 18, Magel2 (−/−) homozygous female mice, 0.2 mg/kg IP QD
  Food intake (food weights in g/day): 3.2 g/day
C57BL/6-Magel2 mice [2]; Day 20, Magel2 (−/+) heterozygous male mice, 0.2 mg/kg IP QD
  Food intake (food weights in g/day): 6.2 g/day
C57BL/6-Magel2 mice [2]; Day 20, Magel2 (−/−) homozygous female mice, 0.2 mg/kg IP QD
  Food intake (food weights in g/day): 4.6 g/day
C57BL/6-Magel2 mice [2]; Day 21, Magel2 (−/+) heterozygous male mice, 0.2 mg/kg IP QD
  Food intake (food weights in g/day): 5.0 g/day
C57BL/6-Magel2 mice [2]; Day 21, Magel2 (−/−) homozygous female mice, 0.2 mg/kg IP QD
  Food intake (food weights in g/day): 11.1 g/day
C57BL/6-Magel2 mice [2]; Day −2 (before dosing), Magel2 (−/+) heterozygous male mice
  Food intake (food weights in g/day): 5.0 g/day
C57BL/6-Magel2 mice [2]; Day −2 (before dosing), Magel2 (−/−) homozygous female mice
  Food intake (food weights in g/day): 3.2 g/day
C57BL/6-Magel2 mice [2]; treated Magel2 (−/+) and (−/−) groups versus vehicle, 0.2 mg/kg IP QD
  difference in food intake between the groups (in words): not a significant difference in food intake
